Experimental data: paper PMC6240031, “CYP6AE gene cluster knockout in Helicoverpa armigera reveals role in detoxification of phytochemicals and insecticides” (Nature Communications, 2018)

What was measured:
Assay in all cases: substrate depletion, UPLC-MS/MS
Format in all cases: biochemical
Details in all cases: 20 uM substrate, NADPH regeneration system, 0.1 M potassium phosphate pH 7.4, 30 C, 1 h, microsomes
CYP6AE14 = molecular target: T1, CYP6AE14 (Helicoverpa armigera, UniProt A0A068EU65)
T1 construct: full ORF, baculovirus (Bac-to-Bac) in High Five cells, microsomes, co-expressed with H. armigera cytochrome P450 reductase (HaCPR)
T1 sequence (A0A068EU65 1-526): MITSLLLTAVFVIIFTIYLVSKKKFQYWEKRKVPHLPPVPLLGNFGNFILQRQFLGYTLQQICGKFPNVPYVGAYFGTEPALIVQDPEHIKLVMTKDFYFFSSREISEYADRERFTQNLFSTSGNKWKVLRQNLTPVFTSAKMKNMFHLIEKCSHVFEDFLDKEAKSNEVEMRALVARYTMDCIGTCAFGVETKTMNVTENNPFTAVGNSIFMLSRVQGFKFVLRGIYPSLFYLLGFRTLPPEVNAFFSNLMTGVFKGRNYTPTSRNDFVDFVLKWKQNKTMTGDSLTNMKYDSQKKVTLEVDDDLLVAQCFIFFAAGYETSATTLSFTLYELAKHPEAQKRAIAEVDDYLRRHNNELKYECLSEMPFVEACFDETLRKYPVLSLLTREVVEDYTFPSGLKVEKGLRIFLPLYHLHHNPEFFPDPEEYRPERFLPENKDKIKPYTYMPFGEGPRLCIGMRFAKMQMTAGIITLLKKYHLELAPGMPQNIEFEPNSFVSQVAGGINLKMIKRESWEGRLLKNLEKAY

CYP6AE19 = molecular target: T2, CYP6AE19 (Helicoverpa armigera, UniProt A0A068EVL0)
T2 construct: full ORF, baculovirus (Bac-to-Bac) in High Five cells, microsomes, co-expressed with H. armigera cytochrome P450 reductase (HaCPR)
T2 sequence (A0A068EVL0 1-528): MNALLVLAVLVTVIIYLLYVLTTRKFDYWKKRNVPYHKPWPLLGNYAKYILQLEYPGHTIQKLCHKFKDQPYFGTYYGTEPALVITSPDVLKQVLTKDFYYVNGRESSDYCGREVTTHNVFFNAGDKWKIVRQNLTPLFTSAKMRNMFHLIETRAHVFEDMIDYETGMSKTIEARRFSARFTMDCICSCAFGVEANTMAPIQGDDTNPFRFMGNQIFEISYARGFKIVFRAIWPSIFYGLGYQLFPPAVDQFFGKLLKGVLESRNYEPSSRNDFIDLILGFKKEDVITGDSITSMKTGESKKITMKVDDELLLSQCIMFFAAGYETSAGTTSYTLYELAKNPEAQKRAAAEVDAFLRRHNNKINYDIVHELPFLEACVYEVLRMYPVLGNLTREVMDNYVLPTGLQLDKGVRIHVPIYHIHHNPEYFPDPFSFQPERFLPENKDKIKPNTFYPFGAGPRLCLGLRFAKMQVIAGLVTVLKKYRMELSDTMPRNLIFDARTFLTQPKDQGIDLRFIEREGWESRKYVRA

CYP6AE11 = molecular target: T3, CYP6AE11 (Helicoverpa armigera, UniProt A0A068ETU4)
T3 construct: full ORF, baculovirus (Bac-to-Bac) in High Five cells, microsomes, co-expressed with H. armigera cytochrome P450 reductase (HaCPR)
T3 sequence (A0A068ETU4 1-522): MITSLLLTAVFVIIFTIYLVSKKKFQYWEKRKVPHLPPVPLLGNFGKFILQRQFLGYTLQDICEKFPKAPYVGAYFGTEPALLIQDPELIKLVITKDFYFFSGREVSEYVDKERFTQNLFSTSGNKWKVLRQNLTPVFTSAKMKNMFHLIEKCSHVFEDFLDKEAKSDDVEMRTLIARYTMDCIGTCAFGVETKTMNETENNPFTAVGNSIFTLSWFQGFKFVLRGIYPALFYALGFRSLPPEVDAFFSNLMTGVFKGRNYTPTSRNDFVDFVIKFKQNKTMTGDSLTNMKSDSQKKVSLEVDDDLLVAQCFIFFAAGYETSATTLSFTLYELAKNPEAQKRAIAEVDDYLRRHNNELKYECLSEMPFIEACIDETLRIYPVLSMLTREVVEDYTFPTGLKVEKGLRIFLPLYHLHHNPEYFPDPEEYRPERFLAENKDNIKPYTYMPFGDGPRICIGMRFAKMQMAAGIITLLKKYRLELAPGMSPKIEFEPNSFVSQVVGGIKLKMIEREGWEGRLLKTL

CCCCCCCCCCCC(C)=O [2-tridecanone]
substrate depletion, UPLC-MS/MS (CYP6AE14): 2-tridecanone was metabolized by three CYP6AE P450s: CYP6AE11, CYP6AE14, and CYP6AE19 | substrate depletion, UPLC-MS/MS (CYP6AE19): 2-tridecanone was metabolized by three CYP6AE P450s: CYP6AE11, CYP6AE14, and CYP6AE19 | substrate depletion, UPLC-MS/MS (CYP6AE11): 2-tridecanone was metabolized by three CYP6AE P450s: CYP6AE11, CYP6AE14, and CYP6AE19
